Test results as given in PubChem BioAssay AID330 (DTP/NCI, 2004).
“And” between values parts separate entries of the source, which are not always exact repeats. Equal entries are not always repeated. Inconclusive results and toxic doses are left out. Rule for the calls: active = survival T/C of 150% or more; inactive = T/C below 125% in these data.

System: P388 leukemia ip, CD2F1 mice, survival T/C
Assay: NCI In Vivo Anticancer Drug Screen. Data for tumor model P388 Leukemia (intraperitoneal) in CD2F1 (CDF1) mice
Details: endpoint: median survival time, higher = longer survival
In short: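 Mice carrying the transplanted tumor received test compound or vehicle. Survival was recorded in each group, and the value is the treated-group measurement divided by that of the vehicle-treated control group.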

[1] = dose: 50.0 mg/kg/injection, schedule: Q01DX005 (ip), vehicle: Klucel (hydroxypropylcellulose) (HPC)
[2] = dose: 100.0 mg/kg/injection, schedule: Q01DX005 (ip), vehicle: Klucel (hydroxypropylcellulose) (HPC)
[3] = dose: 50.0 mg/kg/injection, schedule: Q01DX005 (ip), vehicle: saline with Tween-80
[4] = dose: 100.0 mg/kg/injection, schedule: Q01DX005 (ip), vehicle: saline with Tween-80
[5] = dose: 200.0 mg/kg/injection, schedule: Q01DX005 (ip), vehicle: saline with Tween-80
[6] = dose: 50.0 mg/kg/injection, schedule: Q04DX003 (ip), vehicle: saline with Tween-80
[7] = dose: 100.0 mg/kg/injection, schedule: Q04DX003 (ip), vehicle: saline with Tween-80
[8] = dose: 200.0 mg/kg/injection, schedule: Q04DX003 (ip), vehicle: saline with Tween-80
[9] = dose: 12.5 mg/kg/injection, schedule: Q01DX009 (ip), vehicle: other
[10] = dose: 25.0 mg/kg/injection, schedule: Q01DX009 (ip), vehicle: other
[11] = dose: 50.0 mg/kg/injection, schedule: Q01DX009 (ip), vehicle: other
[12] = dose: 100.0 mg/kg/injection, schedule: Q01DX009 (ip), vehicle: other
[13] = dose: 200.0 mg/kg/injection, schedule: Q01DX009 (ip), vehicle: other
[14] = dose: 200.0 mg/kg/injection, schedule: Q01DX005 (ip), vehicle: Klucel (hydroxypropylcellulose) (HPC)
[15] = dose: 100.0 mg/kg/injection, schedule: Q01DX009 (ip), vehicle: Klucel (hydroxypropylcellulose) (HPC)
[16] = dose: 60.0 mg/kg/injection, schedule: Q01DX005 (ip), vehicle: Klucel (hydroxypropylcellulose) (HPC)
[17] = dose: 120.0 mg/kg/injection, schedule: Q01DX005 (ip), vehicle: Klucel (hydroxypropylcellulose) (HPC)
[18] = dose: 240.0 mg/kg/injection, schedule: Q01DX005 (ip), vehicle: Klucel (hydroxypropylcellulose) (HPC)

Measured: T/C

O=C1CCCN1C(=O)c1ccccc1
inactive: dose: 18.8 mg/kg/injection, schedule: Q01DX001 (ip), vehicle: saline sonified 105 % of control | dose: 37.5 mg/kg/injection, schedule: Q01DX001 (ip), vehicle: saline sonified 120 % of control | dose: 75.0 mg/kg/injection, schedule: Q01DX001 (ip), vehicle: saline sonified 105 % of control

O=C(Nc1n[nH]c(NC(=O)c2ccccc2)n1)c1ccccc1
inactive: [1] 92 % of control | [2] 88 % of control

FC(F)(F)c1c[nH]cc1C(F)(F)F
inactive: dose: 50.0 mg/kg/injection, schedule: Q04DX002 (ip), vehicle: Klucel (hydroxypropylcellulose) (HPC) 109 % of control

Cc1cc2c(c3c1C(=O)CC3)C(C)(C)CCC2(C)C
inactive: [3] 99 % of control | [4] 97 % of control | [5] 95 % of control

O=C(COc1ccc([N+](=O)[O-])cc1)Nc1cccnc1
inactive: [6] 98 % of control | [7] 98 % of control | [8] 99 % of control

CC(=O)OCC1OC(n2nc(/C=C/c3ccccc3)c(=O)n(-c3ccccc3)c2=S)C(OC(C)=O)C(OC(C)=O)C1OC(C)=O (stereo unspecified)
inactive: [7] 103 % of control | [8] 101 % of control | dose: 400.0 mg/kg/injection, schedule: Q04DX003 (ip), vehicle: saline with Tween-80 110 % of control

CCOC(=O)NN(CC(=O)OCc1ccccc1)N=O
inactive: [9] 109 % of control | [10] 94 % of control | [11] 100 % of control | [12] 102 % of control | [13] 98 % of control

Cc1ccccc1-[n+]1nc(-c2ccccc2)nn1-c1ccccc1
inactive: dose: 0.31 mg/kg/injection, schedule: Q01DX009 (ip), vehicle: saline with Tween-80 95 % of control | dose: 0.63 mg/kg/injection, schedule: Q01DX009 (ip), vehicle: saline with Tween-80 104 % of control | dose: 1.25 mg/kg/injection, schedule: Q01DX009 (ip), vehicle: saline with Tween-80 95 % of control

CC1CC(=O)CCC2(C)C(OC(C)(C)C)CCC12 (stereo unspecified)
inactive: [1] 100 % of control | [2] 99 % of control | [14] 99 % of control

O=C(O)c1ccccc1NC(=S)Nc1ccccc1C(F)(F)F
inactive: dose: 50.0 mg/kg/injection, schedule: Q01DX009 (ip), vehicle: Klucel (hydroxypropylcellulose) (HPC) 100 % of control | [15] 96 % of control | dose: 200.0 mg/kg/injection, schedule: Q01DX009 (ip), vehicle: Klucel (hydroxypropylcellulose) (HPC) 105 % of control

CC1=C(C(=O)Nc2ccccc2)C(c2ccccc2F)C(C(=O)Nc2ccccc2)=C(C)N1
inactive: dose: 100.0 mg/kg/injection, schedule: Q04DX002 (ip), vehicle: saline with Tween-80 100 % of control | dose: 200.0 mg/kg/injection, schedule: Q04DX002 (ip), vehicle: saline with Tween-80 100 % of control | dose: 400.0 mg/kg/injection, schedule: Q04DX002 (ip), vehicle: saline with Tween-80 91 % of control

c1ccc(-c2[nH]nc3nc4c(nc23)CCCC4)cc1
inactive: [1] 89 % of control | [2] 99 % of control | [14] 92 % of control

Cc1cc(N(CCOS(C)(=O)=O)CCOS(C)(=O)=O)ccc1C=Nc1ccc(-c2csc(-c3ccccc3)n2)c(Cl)c1
inactive: dose: 6.25 mg/kg/injection, schedule: Q01DX009 (ip), vehicle: Klucel (hydroxypropylcellulose) (HPC) 110 % of control | dose: 12.5 mg/kg/injection, schedule: Q01DX009 (ip), vehicle: Klucel (hydroxypropylcellulose) (HPC) 122 % of control | [15] 98 % of control and 87 % of control

FC(F)(F)C1(C(F)(F)F)OS2(F)(F)(OC(C(F)(F)F)(C(F)(F)F)c3ccccc32)c2ccccc21
inactive: dose: 25.0 mg/kg/injection, schedule: Q01DX005 (ip), vehicle: Klucel (hydroxypropylcellulose) (HPC) 92 % of control | [1] 95 % of control | [2] 94 % of control

O=C1c2ccccc2C(O)(c2ccc(Cl)cc2)c2ccc(Cl)cc21 (stereo unspecified)
inactive: [3] 95 % of control | [4] 98 % of control | [5] 101 % of control

N#Cc1ccc(NN=NCCSCCO)cc1
inactive: dose: 12.5 mg/kg/injection, schedule: Q01DX009 (ip), vehicle: distilled water + alcohol 96 % of control | dose: 25.0 mg/kg/injection, schedule: Q01DX009 (ip), vehicle: distilled water + alcohol 104 % of control | dose: 50.0 mg/kg/injection, schedule: Q01DX009 (ip), vehicle: distilled water + alcohol 104 % of control | dose: 100.0 mg/kg/injection, schedule: Q01DX009 (ip), vehicle: distilled water + alcohol 109 % of control

ONc1ncnc2nc[nH]c12
inactive: [6] 122 % of control | dose: 200.0 mg/kg/injection, schedule: Q04DX003 (ip), vehicle: saline sonified 120 % of control

CCCCCCCCCC(O)CCCCCCCCC
inactive: dose: 100.0 mg/kg/injection, schedule: Q04DX003 (ip), vehicle: other 100 % of control | dose: 200.0 mg/kg/injection, schedule: Q04DX003 (ip), vehicle: other 90 % of control | dose: 400.0 mg/kg/injection, schedule: Q04DX003 (ip), vehicle: other 90 % of control

CCN(CC)CC(C)C1NS(=O)(=O)c2ccccc21 (stereo unspecified)
inactive: dose: 1.56 mg/kg/injection, schedule: Q01DX009 (ip), vehicle: saline 107 % of control | dose: 3.12 mg/kg/injection, schedule: Q01DX009 (ip), vehicle: saline 98 % of control | dose: 6.25 mg/kg/injection, schedule: Q01DX009 (ip), vehicle: saline 100 % of control | dose: 25.0 mg/kg/injection, schedule: Q01DX009 (ip), vehicle: saline 88 % of control | dose: 50.0 mg/kg/injection, schedule: Q01DX009 (ip), vehicle: saline with Tween-80 86 % of control | dose: 50.0 mg/kg/injection, schedule: Q01DX009 (ip), vehicle: saline 87 % of control

CCOC(=O)Nc1ccc(C2SCCN2C(=O)Nc2ccc(Cl)cc2)cc1 (stereo unspecified)
inactive: dose: 60.0 mg/kg/injection, schedule: Q01DX005 (ip), vehicle: saline with Tween-80 100 % of control | dose: 120.0 mg/kg/injection, schedule: Q01DX005 (ip), vehicle: saline with Tween-80 91 % of control | dose: 240.0 mg/kg/injection, schedule: Q01DX005 (ip), vehicle: saline with Tween-80 91 % of control

Nc1ccc(S(=O)(=O)Nc2c(N)nc(SCC(=O)O)[nH]c2=O)cc1
inactive: [16] 92 % of control | [17] 96 % of control | [18] 92 % of control

CC(/C=C/c1cccc(C)c1)=N\NC(N)=O
inactive: [16] 107 % of control | [17] 104 % of control | [18] 115 % of control

COc1ccc(-c2c(N)cnc(C(=O)O)c2C)c(OCc2ccccc2)c1OC
inactive: [9] 108 % of control | [10] 105 % of control | [11] 102 % of control | [12] 97 % of control | [13] 99 % of control

c1ccc(-c2cn3c(n2)SCC3)cc1
inactive: dose: 100.0 mg/kg/injection, schedule: Q01DX001 (ip), vehicle: Klucel (hydroxypropylcellulose) (HPC) 106 % of control | dose: 200.0 mg/kg/injection, schedule: Q01DX001 (ip), vehicle: Klucel (hydroxypropylcellulose) (HPC) 106 % of control | dose: 400.0 mg/kg/injection, schedule: Q01DX001 (ip), vehicle: Klucel (hydroxypropylcellulose) (HPC) 111 % of control
